Source: US7332476B2, “Pyridyl substituted ketolide antibiotics” (Novartis AG, priority 2003, dated 2008)
Converted amounts (≈) assume the structure as drawn.

Assays:
[1] = tested on: Staphylococcus aureus Stau_29213; assay: MIC, broth microdilution (NCCLS); type: cell-based; settings: strain ID A; broth microdilution; in µg/mL (unit assumed)
How it was run: (§1)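 NCCLS broth microdilution with 2-fold serial drug dilutions (methanol stocks diluted in water); inoculum 3×10^5–7×10^5 CFU/ml in CAMHB, with 2-5% lysed horse blood for S. pneumoniae. Incubation 18-24 h at 35° C., ambient air, except S. pneumoniae (5-10% CO2). MIC is lowest concentration preventing visible growth.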

[2] = tested on: Staphylococcus epidermidis Step_f50654; assay: MIC, broth microdilution (NCCLS); type: cell-based; settings: strain ID D; broth microdilution; in µg/mL (unit assumed)
How it was run: as §1

[3] = tested on: Haemophilus influenzae Hain_49247; assay: MIC, broth microdilution (NCCLS); type: cell-based; settings: strain ID H; broth microdilution; unit assumed
[4] = tested on: Staphylococcus epidermidis Step_14990; assay: MIC, broth microdilution (NCCLS); type: cell-based; settings: strain ID C; broth microdilution; in µg/mL (unit assumed)
How it was run: as §1

[5] = tested on: Streptococcus pneumoniae Stpn_Erm S 4297; assay: MIC, broth microdilution (NCCLS); type: cell-based; settings: strain ID Q; broth microdilution
How it was run: as §1

[6] = tested on: Enterococcus faecalis Enfa_29212; assay: MIC, broth microdilution (NCCLS); type: cell-based; settings: strain ID E; broth microdilution
How it was run: as §1

[7] = tested on: Streptococcus pneumoniae Stpn_297-749; assay: MIC, broth microdilution (NCCLS); type: cell-based; set-up: MIC, strain ID N: unit not given here; settings: strain ID N; broth microdilution
How it was run: as §1

[8] = tested on: S. pneumoniae Stpn_Erm 6849; assay: MIC, broth microdilution (NCCLS); type: cell-based, Streptococcus pneumoniae; settings: strain ID P; broth microdilution; in µg/mL (unit assumed)
How it was run: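 S. pneumoniae MIC by NCCLS broth microdilution in cation-adjusted Mueller-Hinton broth with 2-5% lysed horse blood, inoculum 3×10^5–7×10^5 CFU/ml, 2-fold drug dilutions. Incubated 18-24 hours at 35° C. in 5-10% CO2; MIC is lowest concentration preventing visible growth.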

[9] = tested on: Streptococcus pneumoniae Stpn_49619; assay: MIC, broth microdilution (NCCLS); type: cell-based; set-up: MIC, strain ID M: unit not given beside the values; settings: strain ID M; broth microdilution
How it was run: as §1

[10] = tested on: Streptococcus pyogenes Stpy_8668; assay: MIC, broth microdilution (NCCLS); type: cell-based; set-up: MIC, strain ID G: unit not given beside the values; settings: strain ID G; broth microdilution
How it was run: as §1

[11] = In vivo pharmacokinetic study in rats, whole lung (IV and PO); settings: male, Sprague-Dawley, 5 mg/kg, rat
Procedure: (§2) Animal Models. A total of 54 male Sprague-Dawley rats, weighing 200 grams in average, were evaluated for pharmacokinetic studies of representative pyridyl substituted ketolides. Rats were under overnight food restriction and received water ad libitum. Rats were acclimated for approximately 5 days before antibiotic administration.
(§3) Antibiotic Administration. Rats were given bolus administration through (IV) and oral (PO) routes. Representative pyridyl substituted ketolides and telithromycin, for comparison, were diluted in 0.85% saline to a concentration of 15.0 mg/ml, and the resulting pH was adjusted using 1N acetic acid until the compound was in solution. Approximately 200 microliters of the compound solution was administered to the rats. The target dose for IV and PO administration was 5 mg/kg and 15 mg/kg, respectively.
(§4) Sample Collection. Plasma and whole lung samples were collected from the rats. Plasma samples were obtained from blood samples by centrifugation at 3000 RPM for 10 min. Heparin was added in the plasma as an anticoagulant. Whole lung samples were homogenized in deionized water. Samples were stored at −80° C. A total of 9 time points were collected in triplicate at 0.083, 0.25, 0.5, 1, 2, 4, 6, 8, and 24 hrs. Ketolide concentrations in plasma and lung were determined by well-established non-GLP LC-MS-MS methods. PK parameters were estimated from the raw bioanalytical data using WinNolin software (Version 4.0, Pharsight Corporation, CA). […] All representative compounds were compared to telithromycin.

[12] = tested on: Haemophilus influenzae Hain_953460299-3; assay: MIC, broth microdilution (NCCLS); type: cell-based; settings: strain ID K; broth microdilution; in µg/mL (unit assumed)
How it was run: (§5)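 NCCLS broth microdilution; CAMHB / HTM (H. influenzae); inoc 3×10^5–7×10^5 CFU/ml; 35° C, 18-24 h, H. influenzae 5-10% CO2; MIC = no visible growth.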

[13] = tested on: Haemophilus influenzae Hain_960820544-3; assay: MIC, broth microdilution (NCCLS); type: cell-based; settings: strain ID J; broth microdilution; in µg/mL (unit assumed)
How it was run: as §5

[14] = tested on: Staphylococcus aureus Stau_33591; assay: MIC, broth microdilution (NCCLS); type: cell-based; settings: strain ID B; broth microdilution; unit assumed
How it was run: as §5

[15] = tested on: Enterococcus faecalis Enfa_bc 11148-2; assay: MIC, broth microdilution (NCCLS); type: cell-based; settings: strain ID F; broth microdilution; in µg/mL (unit assumed)
How it was run: as §5

[16] = tested on: Haemophilus influenzae Hain_960730503-3; assay: MIC, broth microdilution (NCCLS); type: cell-based; settings: strain ID I; broth microdilution; in µg/mL (unit assumed)
How it was run: as §5

[17] = tested on: Haemophilus influenzae Hain_2762; assay: MIC, broth microdilution (NCCLS); type: cell-based; settings: strain ID L; broth microdilution; in µg/mL (unit assumed)
How it was run: as §5

[18] = In vivo pharmacokinetic study in rats, plasma (IV and PO); set-up: species or system Sprague-Dawley rats; settings: rat
Procedure: as §2, §3, §4

[19] = tested on: Streptococcus pneumoniae Stpn_280-962; assay: MIC, broth microdilution (NCCLS); type: cell-based; set-up: MIC, strain ID O: unit not given beside the values; settings: strain ID O; broth microdilution
How it was run: as §1

For C=C[C@]12OC(=O)N(CCCCn3cnc(-c4cnccc4Cl)c3)[C@@H]1[C@@H](C)C(=O)[C@H](C)C[C@](C)(OC)[C@H](OC1O[C@H](C)C[C@H](N(C)C)[C@H]1O)[C@@H](C)C(=O)[C@@H](C)C(=O)O[C@@H]2CC (stereo partly drawn) [XXX], the “MIC, strain ID A” value [1] was 0.2, the “MIC, strain ID D” value [2] was 0.1 and the MIC, strain ID H [3] was 3.13 µg/mL (≈ 3.65 µM). For the same molecule, the “MIC, strain ID C” value [4] was 0.2, the “MIC, strain ID Q” value [5] was “=0.05” and the “MIC, strain ID E” value [6] was “=0.05”. The “MIC, strain ID N” value [7] was “=0.05”, the “MIC, strain ID P” value [8] was 0.4 and the “MIC, strain ID M” value [9] was “=0.05”. The “MIC, strain ID G” value [10] was “=0.05”, the half-life ([11]; IV, whole lung, read-out: t1/2, IV Lung (converted)) was 1.2 h and the Kp ([11]; lung/plasma, iv, read-out: L/P ratio, IV) was 75. The “MIC, strain ID K” value [12] was 3.13, the “MIC, strain ID J” value [13] was 6.25 and the MIC, strain ID B [14] was over 50 µg/mL. For the same molecule, the “MIC, strain ID F” value [15] was 0.4, the “MIC, strain ID I” value [16] was 6.25 and the “MIC, strain ID L” value [17] was 0.78. The half-life ([18]; male, Sprague-Dawley, 5 mg/kg, IV, plasma, read-out: t1/2, IV Plasma (converted)) was 1 h, the AUC ([18]; male, Sprague-Dawley, plasma, IV, dose IV = 5 mg/kg (Compound XIV: IV = 15)) was 2100 ng·h/mL and the clearance ([18]; male, Sprague-Dawley, plasma, intravenous) was 121 mL/min/kg. For the same molecule, the Vd ([18]; male, Sprague-Dawley, plasma, intravenous, read-out: Vss) was 8 L/kg, the “F, PO” value ([18]; PO = 15 mg/kg) was 21% and the “MIC, strain ID O” value [19] was “=0.05”.
